Results as given in ChEMBL document CHEMBL4819123, “Pulchinenosides: Correlation of surface activity-cytotoxicity and hepatocyte apoptosis mechanism study” (Bioorg Med Chem Lett, 2021).

Assays:
[1] = Hemolytic activity in rabbit erythrocytes; assay type: ADME, cell-based, Oryctolagus cuniculus, Erythrocyte; conditions: read-out: HD50 (the source's name)
L02 [2] = experiment: Cytotoxicity against human L02 cells by MTT assay; assay type: cell-based
L02 [3] = experiment: Induction of apoptosis in human L02 cells assessed as early apoptotic cells at 6 uM by annexin-V-FITC/PI staining based flow cytometry analysis (reference value: 3.81 %); assay type: cell-based; conditions: l02, 6 µM
L02 [4] = experiment: Induction of apoptosis in human L02 cells assessed as late apoptotic cells at 6 uM by annexin-V-FITC/PI staining based flow cytometry analysis (reference value: 0.92 %); assay type: cell-based; conditions: l02, 6 µM
L02 [5] = experiment: Induction of apoptosis in human L02 cells assessed as early apoptotic cells at 8 uM by annexin-V-FITC/PI staining based flow cytometry analysis (reference value: 3.81 %); assay type: cell-based; conditions: l02, 8 µM
L02 [6] = experiment: Induction of apoptosis in human L02 cells assessed as late apoptotic cells at 8 uM by annexin-V-FITC/PI staining based flow cytometry analysis (reference value: 0.92 %); assay type: cell-based; conditions: l02, 8 µM
L02 [7] = experiment: Induction of apoptosis in human L02 cells assessed as early apoptotic cells at 10 uM by annexin-V-FITC/PI staining based flow cytometry analysis (reference value: 3.81 %); assay type: cell-based; conditions: l02, 10 µM
L02 [8] = experiment: Induction of apoptosis in human L02 cells assessed as late apoptotic cells at 10 uM by annexin-V-FITC/PI staining based flow cytometry analysis (reference value: 0.92 %); assay type: cell-based; conditions: l02, 10 µM
L02 [9] = experiment: Induction of cell cycle arrest in human L02 cells assessed as G0/G1 phase accumulation at 6 uM by PI staining based flow cytometry analysis (reference value: 53.77 %); conditions: l02, 6 µM
L02 [10] = experiment: Induction of cell cycle arrest in human L02 cells assessed as S phase accumulation at 6 uM by PI staining based flow cytometry analysis (reference value: 38.23 %); conditions: l02, 6 µM
L02 [11] = experiment: Induction of cell cycle arrest in human L02 cells assessed as G2/M phase accumulation at 6 uM by PI staining based flow cytometry analysis (reference value: 8 %); conditions: l02, 6 µM
L02 [12] = experiment: Induction of cell cycle arrest in human L02 cells assessed as G0/G1 phase accumulation at 8 uM by PI staining based flow cytometry analysis (reference value: 53.77 %); conditions: l02, 8 µM
L02 [13] = experiment: Induction of cell cycle arrest in human L02 cells assessed as S phase accumulation at 8 uM by PI staining based flow cytometry analysis (reference value: 38.23 %); conditions: l02, 8 µM
L02 [14] = experiment: Induction of cell cycle arrest in human L02 cells assessed as G2/M phase accumulation at 8 uM by PI staining based flow cytometry analysis (reference value: 8 %); conditions: l02, 8 µM
L02 [15] = experiment: Induction of cell cycle arrest in human L02 cells assessed as G0/G1 phase accumulation at 10 uM by PI staining based flow cytometry analysis (reference value: 53.77 %); conditions: l02, 10 µM
L02 [16] = experiment: Induction of cell cycle arrest in human L02 cells assessed as S phase accumulation at 10 uM by PI staining based flow cytometry analysis (reference value: 38.23 %); conditions: l02, 10 µM
L02 [17] = experiment: Induction of cell cycle arrest in human L02 cells assessed as G2/M phase accumulation at 10 uM by PI staining based flow cytometry analysis (reference value: 8 %); conditions: l02, 10 µM
L02 [18] = experiment: Cytotoxicity against human L02 cells assessed as increase in LDH leakage by LDH assay; assay type: cell-based
[19] = Oil-water partition coefficient, logP of compound; assay type: physicochemical
L02 [20] = experiment: Induction of apoptosis in human L02 cells assessed as decrease in ratio of Bcl-2/Bax at 8 to 12 ug/ml measured after 24 hrs by Western blot analysis; assay type: cell-based; conditions: l02, 24 h, dose 8-12 µg/ml
L02 [21] = experiment: Induction of apoptosis in human L02 cells assessed as upregulation of FAS expression at 8 to 12 ug/ml measured after 24 hrs by Western blot analysis; assay type: cell-based; conditions: l02, 24 h, dose 8-12 µg/ml
L02 [22] = experiment: Induction of apoptosis in human L02 cells assessed as decrease in caspase 8 level at 8 to 12 ug/ml measured after 24 hrs by Western blot analysis; assay type: cell-based; conditions: l02, 24 h, dose 8-12 µg/ml
L02 [23] = experiment: Induction of apoptosis in human L02 cells assessed as decrease in caspase 9 level at 8 to 12 ug/ml measured after 24 hrs by Western blot analysis; assay type: cell-based; conditions: l02, 24 h, dose 8-12 µg/ml
L02 [24] = experiment: Induction of apoptosis in human L02 cells assessed as increase in cleaved caspase 8 level at 8 to 12 ug/ml measured after 24 hrs by Western blot analysis; assay type: cell-based; conditions: l02, 24 h, dose 8-12 µg/ml
L02 [25] = experiment: Induction of apoptosis in human L02 cells assessed as early apoptotic cells at 18 uM by annexin-V-FITC/PI staining based flow cytometry analysis (reference value: 3.81 %); assay type: cell-based; conditions: l02, 18 µM
L02 [26] = experiment: Induction of apoptosis in human L02 cells assessed as late apoptotic cells at 18 uM by annexin-V-FITC/PI staining based flow cytometry analysis (reference value: 0.92 %); assay type: cell-based; conditions: l02, 18 µM
L02 [27] = experiment: Induction of apoptosis in human L02 cells assessed as early apoptotic cells at 24 uM by annexin-V-FITC/PI staining based flow cytometry analysis (reference value: 3.81 %); assay type: cell-based; conditions: l02, 24 µM
L02 [28] = experiment: Induction of apoptosis in human L02 cells assessed as late apoptotic cells at 24 uM by annexin-V-FITC/PI staining based flow cytometry analysis (reference value: 0.92 %); assay type: cell-based; conditions: l02, 24 µM
L02 [29] = experiment: Induction of apoptosis in human L02 cells assessed as early apoptotic cells at 26 uM by annexin-V-FITC/PI staining based flow cytometry analysis (reference value: 3.81 %); assay type: cell-based; conditions: l02, 26 µM
L02 [30] = experiment: Induction of apoptosis in human L02 cells assessed as late apoptotic cells at 26 uM by annexin-V-FITC/PI staining based flow cytometry analysis (reference value: 0.92 %); assay type: cell-based; conditions: l02, 26 µM
L02 [31] = experiment: Induction of cell cycle arrest in human L02 cells assessed as G0/G1 phase accumulation at 18 uM by PI staining based flow cytometry analysis (reference value: 53.77 %); conditions: l02, 18 µM
L02 [32] = experiment: Induction of cell cycle arrest in human L02 cells assessed as S phase accumulation at 18 uM by PI staining based flow cytometry analysis (reference value: 38.23 %); conditions: l02, 18 µM
L02 [33] = experiment: Induction of cell cycle arrest in human L02 cells assessed as G2/M phase accumulation at 18 uM by PI staining based flow cytometry analysis (reference value: 8 %); conditions: l02, 18 µM
L02 [34] = experiment: Induction of cell cycle arrest in human L02 cells assessed as G0/G1 phase accumulation at 24 uM by PI staining based flow cytometry analysis (reference value: 53.77 %); conditions: l02, 24 µM
L02 [35] = experiment: Induction of cell cycle arrest in human L02 cells assessed as S phase accumulation at 24 uM by PI staining based flow cytometry analysis (reference value: 38.23 %); conditions: l02, 24 µM
L02 [36] = experiment: Induction of cell cycle arrest in human L02 cells assessed as G2/M phase accumulation at 24 uM by PI staining based flow cytometry analysis (reference value: 8 %); conditions: l02, 24 µM
L02 [37] = experiment: Induction of cell cycle arrest in human L02 cells assessed as G0/G1 phase accumulation at 26 uM by PI staining based flow cytometry analysis (reference value: 53.77 %); conditions: l02, 26 µM
L02 [38] = experiment: Induction of cell cycle arrest in human L02 cells assessed as S phase accumulation at 26 uM by PI staining based flow cytometry analysis (reference value: 38.23 %); conditions: l02, 26 µM
L02 [39] = experiment: Induction of cell cycle arrest in human L02 cells assessed as G2/M phase accumulation at 26 uM by PI staining based flow cytometry analysis (reference value: 8 %); conditions: l02, 26 µM

| Activity (L02 [9]) [%] | Activity (L02 [10]) [%] | Activity (L02 [11]) [%] | Activity (L02 [12]) [%] | Activity (L02 [13]) [%] | Activity (L02 [14]) [%] | Activity (L02 [15]) [%] | Activity (L02 [16]) [%] | Activity (L02 [17]) [%] | logP [19] | SMILES | HC50 [1] [µM] | IC50 (L02 [2]) [µM] | Activity (L02 [3]) [%] | Activity (L02 [4]) [%] | Activity (L02 [5]) [%] | Activity (L02 [6]) [%] | Activity (L02 [7]) [%] | Activity (L02 [8]) [%] | Activity (L02 [18]) | further results |
| --- | --- | --- | --- | --- | --- | --- | --- | --- | --- | --- | --- | --- | --- | --- | --- | --- | --- | --- | --- | --- |
| 58.57 | 33.43 | 8 | 56.86 | 38.34 | 4.8 | 50.68 | 47.32 | 2 | 0.318 | C[C@@H]1O[C@@H](O[C@H]2[C@H](O[C@H]3CC[C@]4(C)[C@H]5CC=C6[C@@H]7CC(C)(C)CC[C@]7(C(=O)O)CC[C@@]6(C)[C@]5(C)CC[C@H]4C3(C)C)OC[C@H](O)[C@@H]2O[C@@H]2O[C@H](CO)[C@@H](O)[C@H](O)[C@H]2O)[C@H](O)[C@H](O)[C@H]1O | 3.6 | 7.49 | 6.87 | 2.91 | 13.4 | 27.9 | 2.79 | 89.3 | Toxic | – |
| 57.44 | 34.56 | 8 | 60.25 | 35.95 | 3.8 | 67.43 | 32.14 | 0.45 | -0.0114 | C[C@H]1O[C@@H](O[C@@H]2[C@@H](O)[C@@H](CO)O[C@H](O[C@@H]3[C@H](O)[C@@H](O)[C@H](O[C@H]4CC[C@]5(C)[C@H]6CC=C7[C@@H]8CC(C)(C)CC[C@]8(C(=O)O)CC[C@@]7(C)[C@]6(C)CC[C@H]5C4(C)C)O[C@@H]3CO)[C@@H]2O)[C@H](O[C@@H]2OC[C@@H](O)[C@@H](O)[C@@H]2O)[C@@H](O)[C@@H]1O | 2.49 | 9.57 | 7.62 | 7.91 | 23.4 | 54.1 | 1.92 | 92.2 | Toxic | Activity (L02 [20]): Toxic; Activity (L02 [21]): Toxic; Activity (L02 [22]): Toxic; Activity (L02 [23]): Toxic; Activity (L02 [24]): Toxic |
| – | – | – | – | – | – | – | – | – | 0.244 | C[C@@H]1O[C@@H](O[C@H]2[C@H](O[C@H]3CC[C@]4(C)[C@H]5CC=C6[C@@H]7CC(C)(C)CC[C@]7(C(=O)O)CC[C@@]6(C)[C@]5(C)CC[C@H]4C3(C)C)OC[C@H](O)[C@@H]2O)[C@H](O)[C@H](O)[C@H]1O | 7.46 | 23.1 | – | – | – | – | – | – | Toxic | Activity (L02 [25]): 8.4%; Activity (L02 [26]): 3.82%; Activity (L02 [27]): 12.1%; Activity (L02 [28]): 6.93%; Activity (L02 [29]): 54.9%; Activity (L02 [30]): 8.41%; Activity (L02 [31]): 69.09%; Activity (L02 [32]): 30.6%; Activity (L02 [33]): 0.31%; Activity (L02 [34]): 64%; Activity (L02 [35]): 36.28%; Activity (L02 [36]): 1.72%; Activity (L02 [37]): 51.19%; Activity (L02 [38]): 44.08%; Activity (L02 [39]): 4.73% |
